Measurements taken from BindingDB's records for doi:10.1016/j.bmcl.2007.04.105 (Abbott Laboratories, 2007).

Target: Transient receptor potential cation channel subfamily V member 1 (Homo sapiens, UniProt Q8NER1)
Test: Ca2+ Influx Functional Assay for the Determination of in Vitro Activity.
Conditions: pH 7.4; 22 °C; read-out: EC50 (the source's name)
Protocol: The functional antagonist activity of compounds at the TRPV1 receptor was determined with a Ca2+ influx assay by measuring the effect on capsaicin (0.05 uM) evoked increase in intracellular Ca2+ levels using cells stably expressing recombinant human TRPV1. All compounds were tested over an 11-point half-log concentration range. The fluorescent Ca2+ chelating dye fluo-4 was used as an indicator of the relative levels of Ca2+ in a 96-well format using a fluorescence imaging plate reader. Fluorescence readings were made at 1-5 s intervals over the 240 s course of the experimental run. The peak increase in relative fluorescence units was calculated and expressed as a percentage of the 0.05 uM capsaicin (control) response. Curve fits of the data were solved using a four-parameter logistic Hill equation in GraphPad Prism, and IC50 values were calculated.

Chain of Transient receptor potential cation channel subfamily V member 1 (Q8NER1 whole entry): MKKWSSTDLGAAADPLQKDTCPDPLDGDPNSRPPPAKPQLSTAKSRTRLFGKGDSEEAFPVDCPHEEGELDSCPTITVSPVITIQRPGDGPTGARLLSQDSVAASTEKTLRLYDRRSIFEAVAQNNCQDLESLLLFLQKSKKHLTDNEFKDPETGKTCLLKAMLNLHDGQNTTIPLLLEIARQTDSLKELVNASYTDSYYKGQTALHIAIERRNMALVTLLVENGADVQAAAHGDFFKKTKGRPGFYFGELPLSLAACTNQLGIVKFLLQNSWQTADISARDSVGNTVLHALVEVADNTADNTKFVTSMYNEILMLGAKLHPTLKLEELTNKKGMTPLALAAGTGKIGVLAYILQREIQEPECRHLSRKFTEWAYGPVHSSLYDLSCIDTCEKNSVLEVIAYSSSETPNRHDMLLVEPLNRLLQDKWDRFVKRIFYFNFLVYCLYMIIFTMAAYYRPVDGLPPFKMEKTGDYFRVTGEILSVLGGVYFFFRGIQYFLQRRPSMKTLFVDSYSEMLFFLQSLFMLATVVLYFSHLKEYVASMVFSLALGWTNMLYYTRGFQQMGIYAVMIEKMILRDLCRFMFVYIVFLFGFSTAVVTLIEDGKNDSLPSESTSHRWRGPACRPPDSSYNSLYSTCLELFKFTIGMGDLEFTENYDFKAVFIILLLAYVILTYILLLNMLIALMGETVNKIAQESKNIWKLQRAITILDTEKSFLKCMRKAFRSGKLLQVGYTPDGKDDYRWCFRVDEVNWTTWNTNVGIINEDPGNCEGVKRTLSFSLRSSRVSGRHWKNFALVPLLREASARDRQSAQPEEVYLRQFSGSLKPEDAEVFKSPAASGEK

SMILES	IC50 [nM]
CC(NC(=O)Nc1cccc2cnccc12)c1ccc(C(F)(F)F)cc1 (configuration not stated)	22
CC(NC(=O)Nc1cccc2[nH]ncc12)c1ccc(C(F)(F)F)cc1 (racemic) [3-1H-indazol-4-yl-1-{1-[4-(trifluoromethyl)phenyl]ethyl}urea]	47
O=C(Nc1cccc2cnccc12)NC(c1ccccc1)c1ccccc1 [1-(diphenylmethyl)-3-isoquinolin-5-ylurea]	600
CC(C)(C)c1ccc(C(NC(=O)Nc2cccc3cnccc23)c2ccccc2)cc1 (configuration not stated) [1-[(4-tert-butylphenyl)(phenyl)methyl]-3-isoquinolin-5-ylurea]	125
CCC(NC(=O)Nc1cccc2cnccc12)c1ccccc1 (configuration not stated) [1-isoquinolin-5-yl-3-(1-phenylpropyl)urea]	2580
CC(C)(NC(=O)Nc1cccc2cnccc12)c1ccc(C(F)(F)F)cc1 [1-isoquinolin-5-yl-3-{2-[4-(trifluoromethyl)phenyl]propan-2-yl}urea]	94
O=C(Nc1cccc2cnccc12)NC(c1ccc(C(F)(F)F)cc1)C1CCCCC1 (configuration not stated) [1-{cyclohexyl[4-(trifluoromethyl)phenyl]methyl}-3-isoquinolin-5-ylurea]	287
Cc1ccc([C@@H](C)NC(=O)Nc2cccc3[nH]ncc23)cc1 [3-1H-indazol-4-yl-1-[(1R)-1-(4-methylphenyl)ethyl]urea]	73
C[C@@H](NC(=O)Nc1cccc2[nH]ncc12)c1ccc2ccccc2c1 [3-1H-indazol-4-yl-1-[(1R)-1-(naphthalen-2-yl)ethyl]urea]	123
C[C@@H](NC(=O)Nc1cccc2[nH]ncc12)c1ccc(C(F)(F)F)cc1 [3-1H-indazol-4-yl-1-[(1R)-1-[4-(trifluoromethyl)phenyl]ethyl]urea]	41
Cc1ccc([C@H](C)NC(=O)Nc2cccc3[nH]ncc23)cc1 [3-1H-indazol-4-yl-1-[(1S)-1-(4-methylphenyl)ethyl]urea]	749
C[C@H](NC(=O)Nc1cccc2[nH]ncc12)c1ccc2ccccc2c1 [3-1H-indazol-4-yl-1-[(1S)-1-(naphthalen-2-yl)ethyl]urea]	3750
C[C@H](NC(=O)Nc1cccc2[nH]ncc12)c1ccc(C(F)(F)F)cc1 [3-1H-indazol-4-yl-1-[(1S)-1-[4-(trifluoromethyl)phenyl]ethyl]urea]	248
N#CCC(NC(=O)Nc1cccc2cnccc12)c1ccccc1 (configuration not stated) [3-(2-cyano-1-phenylethyl)-1-isoquinolin-5-ylurea]	15900
CC(NC(=O)Nc1cccc2cnccc12)c1ccc(C(C)(C)C)cc1C(C)(C)C (configuration not stated) [3-[1-(2,4-di-tert-butylphenyl)ethyl]-1-isoquinolin-5-ylurea]	17
CC(NC(=O)Nc1cccc2cnccc12)c1ccc(Br)cc1 (configuration not stated) [3-[1-(4-bromophenyl)ethyl]-1-isoquinolin-5-ylurea]	26
CCc1cc(C(C)(C)C)ccc1C(C)NC(=O)Nc1cccc2cnccc12 (configuration not stated) [3-[1-(4-tert-butyl-2-ethylphenyl)ethyl]-1-isoquinolin-5-ylurea]	20
Cc1cc(C(C)(C)C)ccc1C(C)NC(=O)Nc1cccc2cnccc12 (configuration not stated) [3-[1-(4-tert-butyl-2-methylphenyl)ethyl]-1-isoquinolin-5-ylurea]	46
CC(NC(=O)Nc1cccc2cnccc12)c1ccc(C(C)(C)C)cc1 (configuration not stated) [3-[1-(4-tert-butylphenyl)ethyl]-1-isoquinolin-5-ylurea]	24
CC(C)(NC(=O)Nc1cccc2cnccc12)c1ccc(Cl)cc1 [3-[2-(4-chlorophenyl)propan-2-yl]-1-isoquinolin-5-ylurea]	143
CN(C)CC(NC(=O)Nc1cccc2cnccc12)c1ccccc1 (configuration not stated) [3-[2-(dimethylamino)-1-phenylethyl]-1-isoquinolin-5-ylurea]	31000
O=C(Nc1cccc2cnccc12)NC(c1ccccc1)c1ccc(N2CCCCC2)cc1 (configuration not stated) [3-isoquinolin-5-yl-1-{phenyl[4-(piperidin-1-yl)phenyl]methyl}urea]	171
O=C(Nc1cccc2cnccc12)NC(c1ccccc1)c1ccc(C(F)(F)F)cc1 (configuration not stated) [3-isoquinolin-5-yl-1-{phenyl[4-(trifluoromethyl)phenyl]methyl}urea]	147
CC(NC(=O)Nc1cccc2cnccc12)c1ccc(C(F)(F)F)c(F)c1 (configuration not stated) [3-{1-[3-fluoro-4-(trifluoromethyl)phenyl]ethyl}-1-isoquinolin-5-ylurea]	19
CCC(NC(=O)Nc1cccc2cnccc12)c1ccc(C(F)(F)F)c(F)c1 (configuration not stated) [3-{1-[3-fluoro-4-(trifluoromethyl)phenyl]propyl}-1-isoquinolin-5-ylurea]	109
O=C(Nc1cccc2cnccc12)NC(c1ccc(C(F)(F)F)cc1)C1CCCC1 (configuration not stated) [3-{cyclopentyl[4-(trifluoromethyl)phenyl]methyl}-1-isoquinolin-5-ylurea]	476
O=C(Nc1cccc2cnccc12)NC(c1ccc(C(F)(F)F)cc1)C1CC1 (configuration not stated) [3-{cyclopropyl[4-(trifluoromethyl)phenyl]methyl}-1-isoquinolin-5-ylurea]	149
